What is called pIC50 is −log10 of the IC50, conventionally taken in molar units. Broadly, the viability is a read-out of living cells in per cent, often relative to untreated cells.

pIC50: −log10 of the molar value. Counter-ions that a name gives are not always drawn. Like-named read-outs stand apart in the source and are kept apart here.

In one data set the test system is C6 cells. Nature of the data set: MTT cell viability assay in C6 cells. It is filed as cell-based. The following applies: 0.5 to 50 μM; for pIC50: Rattus norvegicus, C6 cell line, 24 h exposure; for toxicity (cell viability) in the tested concentration range: C6 cells, 24 h. As for the experimental part:
C6 cells (CCL-107, Lot No. 63821786) were purchased from the American Type Culture Collection (ATCC, Manassas, VA, U.S.A.). This cell line has been previously used as an in vitro astrocyte model for toxicity[22] and is morphologically and functionally similar to primary astrocyte cultures.[34] The C6 cells were grown and maintained at 37 °C under humidified conditions at 5% CO2 in DMEM/F12 medium supplemented with 10% FBS and 1% P/S. The cells were maintained at a seeding density of 1 × 10^6 cells in 100 mm tissue culture-treated dishes (Cat. No. 430167, Corning, Somerville, MA, U.S.A.). All the experiments for the current study utilizing C6 cells have been performed within passage 2 and passage 20.
(§1) All the LC-PCB exposures or their corresponding human-relevant metabolite exposures were performed in serum-free, phenol-red-free cell culture media suited for the respective cell type described above. The exposures were within a concentration range of 0.5–50 μM for 24 h at 37 °C under humidified conditions at 5% CO2. DMSO was used as a negative control. All stock solutions of the test compounds were prepared in DMSO. The final DMSO concentration was maintained at <0.5% for all the exposures. After the 24 h incubation, either an MTT assay for cell viability or an LDH assay for cytotoxicity was employed.
(§2) C6 or primary cells were seeded in 24-well cell culture plates (Corning Inc., Corning, NY, U.S.A; Cat No. 3526) and allowed to grow until 80–90% confluent. The cells were then exposed to test compounds, as described above (0, 0.5, 1, 5, 10, 20, and 50 μM). The MTT assay was performed, as described[38] with modifications. After 24 h of exposure, the media was removed, and cells were washed with HBSS once. Two hundred microliters of 0.5 mg/mL MTT solution prepared in HBSS/Glucose (Glucose used at 1 mg/mL HBSS) was added to each well of the 24-well plate. The cells were incubated with the MTT solution for 45 min to 1 h at 37 °C under humidified conditions at 5% CO2. After incubation, the MTT solution was removed, and the water-insoluble purple formazan product was dissolved in 400 μL DMSO. This DMSO solution was added to a clear, flat bottom 96-well polystyrene plate (Cat. No. 12-565-501, Thermo Fisher Scientific, Waltham, MA. U.S.A.) in duplicate and read at 570 and 650 nm using a microplate reader (SpectraMax 190, Molecular Devices, San Jose, CA. U.S.A.). The mean percent cell viability was calculated as follows: [drawing 1]
In general terms: Tetrazolium dyes change colour on reduction, which living cells bring about.

The next data set relates to rat primary astrocytes. Nature of the data set: MTT cell viability assay in rat primary astrocytes. It is filed as cell-based, Sprague-Dawley rat. Particulars: 24 h.
From the text: Sprague-Dawley male and female rats were utilized to obtain cultures of sex-specific primary cortical cells. All animal experiments were approved by the Institutional Animal Care and Uses Committee (IACUC) at the University of Iowa. The rat pups were sex-segregated as males and females based on visual examination and later confirmed by the presence of a Y chromosome-specific gene Sry by PCR. The gene for beta-actin, Actb, was used as a control. The primer sequences used for PCR amplification were as described,[35] which yielded a 317-bp product for Sry and a 220-bp product for Actb. Both products were confirmed by gel electrophoresis on a 1% agarose gel after PCR amplification was completed. As previously described, with modifications, astrocytes were obtained from the cortex of PND2/3 rats.[36] Briefly, cortical sections were dissociated in minimal essential medium with Earle’s salts for suspension cultures (S-MEM; Life Technologies) with 1% penicillin/streptomycin and 1.5 U/mL dispase (Life Technologies) for 60 min, aliquoting and replacing dissociation media every 10 min, adding 8000 U/mL DNase I in water after the first digestion. The enzymatic digestion was stopped by adding a growth medium containing minimal essential medium with Earle’s salts (MEM; Life Technologies) with 1% P/S and 10% heat-inactivated horse serum. After digestion, cells were centrifuged for 10 min at 1000 × g at 4 °C, and the pellet was resuspended in a growth medium. Cells were assessed for count and viability and then plated at 10,000 viable cells/cm^2 in T75 flasks. Flasks were shaken after 24 h, and media was replaced to begin removing microglia and then repeated every 2–3 days. Flow cytometry utilizing GFAP and IBA1 antibodies was run at passage 2 to confirm the elimination of microglia from the primary astrocyte cultures. The rat primary astrocyte cultures were maintained in MEM with 1% P/S and 10% heat-inactivated horse serum at 37 °C under humidified conditions at 5% CO2. The detailed protocol for astrocyte isolation of sex segregated rat pups and further validation of purity of astrocyte cultures is published and can be accessed at: dx.doi.org/10.17504/protocols.io.e6nvwjry7lmk/v1.
as §1, §2

For data set [1], the system named is mouse primary mixed glial cells. Nature of the data set: MTT cell viability assay in mouse primary glial cells. Type of data set: cell-based, C57BL/6 mouse. The following applies: Glial cell; mouse primary mixed glial cells (about 80% astrocytes, 20% microglia), MTT assay, 24 h. The protocol:
(§3) Primary glial cell cultures obtained from PND1-3 C57BL/6 mice pups were provided by Dr. Tjalkens at Colorado State University, Fort Collins, CO, U.S.A. The primary astroglial cell cultures were grown and maintained, as described previously in MEM medium supplemented with 10% FBS and 1% P/S.[37]
as §1, §2

Experiment in data set [2]: as above
It is filed as cell-based, C57BL/6 mouse. The following applies: mouse, primary mixed glial cells, MTT, primary glial cells from C57BL/6 mice. The protocol: as §3, §1, §2

[3] abbreviates: read-out: sulfated metabolite IC50.
Where [4] appears, read: read-out: hydroxylated metabolite IC50.
Where [5] appears, read: Astrocyte, sex segregated rat primary astrocytes, female, read-out: IC50 females.
Where [6] appears, read: Astrocyte, sex segregated rat primary astrocytes, male, read-out: IC50 males.

Consider `O=S(=O)(O)Oc1ccc(-c2ccc(Cl)cc2)cc1` [PCB 3 sulfated metabolite], for which the pIC50 in the data set on C6 cells (setting [3]) was less than 4.30.
Take `Oc1ccc(-c2ccc(Cl)cc2)cc1` [PCB 3 hydroxylated metabolite]: the pIC50 in the data set with C6 cells (setting [4]) was 4.67.
With `Clc1ccc(-c2ccc(Cl)cc2Cl)cc1` [PCB28, 2,4,4′-trichlorobiphenyl], in the data set with C6 cells (read-out: parent compound IC50), the pIC50 was roughly 4.60.
Turning to `Oc1ccc(-c2ccc(Cl)cc2Cl)cc1Cl` [PCB 25 hydroxylated metabolite], the pIC50 in the data set on C6 cells (setting [4]) is 5.28.
For `Clc1cccc(-c2ccc(Cl)cc2Cl)c1` [PCB25, 2,3′,4-trichlorobiphenyl], the pIC50 in the data set on C6 cells (read-out: parent compound IC50) is 5.00.
On to `Clc1cccc(-c2cccc(Cl)c2)c1` [PCB11, 3,3′-dichlorobiphenyl], for which the “toxicity (cell viability) in the tested concentration range” value (“toxicity (cell viability)” below) with C6 cells is reported as “non-toxic”. Further, the negative logarithm of the IC50 (pIC50) in the data set on C6 cells (read-out: parent compound IC50) is less than 4.30.
`Oc1ccc(-c2cccc(Cl)c2)cc1Cl` [PCB 11 hydroxylated metabolite]: the pIC50 with C6 cells (setting [4]) was 4.89.
For `Clc1ccc(Cl)c(-c2cc(Cl)ccc2Cl)c1` [PCB52, 2,2′,5,5′-tetrachlorobiphenyl], the pIC50 is 5.06 with C6 cells (read-out: parent compound IC50); 4.84 in the data set with rat primary astrocytes (setting [5]); 4.82 with rat primary astrocytes (setting [6]); 4.93 in the data set with rat primary astrocytes (mixed rat primary astrocyte cultures (>95% astrocytes), read-out: IC50); 5.01 in data set [1].
For the compound `O=S(=O)(O)Oc1cc(Cl)c(-c2cc(Cl)ccc2Cl)cc1Cl` [4-OH-PCB52 sulfate], the “toxicity (cell viability)” value in the data set with C6 cells is “reduced cell viability”. In addition, the pIC50 in the data set on C6 cells (setting [3]) is 5.08; in the data set with rat primary astrocytes (setting [5]), 5.16; in the data set on rat primary astrocytes (setting [6]) it was 5.15. Further, the viability at 24 h, 5 µM in data set [2] was greater than 150%. For the same compound, in data set [2] (next higher concentration after 5 μM), the viability at 24 h, 10 μM stood at 20%.
Regarding `O=S(=O)(O)Oc1ccc(-c2ccc(Cl)cc2Cl)cc1Cl` [PCB 25 sulfated metabolite], in the data set with C6 cells (setting [3]), the negative-log IC50 (pIC50) was less than 4.30.
Turning to `Clc1ccc(-c2ccccc2)cc1` [PCB3, 4-chlorobiphenyl], the “toxicity (cell viability)” value in the data set on C6 cells is “non-toxic”. The negative logarithm of the IC50 (pIC50) with C6 cells (read-out: parent compound IC50) is less than 4.30.
Regarding `Oc1cc(Cl)c(-c2cc(Cl)ccc2Cl)cc1Cl` [4-OH-PCB52], the pIC50 in the data set on C6 cells (setting [4]) is 5.66; in the data set with rat primary astrocytes (setting [5]), 5.36; in the data set on rat primary astrocytes (setting [6]) it was 5.31. Besides, the viability at 24 h, 1 µM in data set [2] (1 μM) stood at 150%. Moreover, the viability at 24 h, 5 µM in data set [2] was roughly 0%.
Take `O=S(=O)(O)Oc1ccc(-c2cccc(Cl)c2)cc1Cl` [PCB 11 sulfated metabolite]: the pIC50 with C6 cells (setting [3]) was less than 4.30.

The record behind these values is PMC10283044, “Structure–Activity Relationship of Lower Chlorinated Biphenyls and Their Human-Relevant Metabolites for Astrocyte Toxicity” (Chemical Research in Toxicology, 2023).
